Values quoted from earlier work as cited in paper PMC2837554 (ChemMedChem, 2010).
pKd: −log10 of the molar value.

Columns and labels:
aggregated Aβ = settings: reported value

pKd (aggregated Aβ)	pKd (Aβ aggregates)	SMILES
5.70	–	Cc1ccc2c(c1)sc(-c1ccc(N(C)C)cc1)[n+]2C [ThT, Thioflavin T]
–	7.42	CN(C)c1ccc(/C=C/C2=CC(=C/C=C3C=CC(=[N+](C)C)C=C3)/O[B-](F)(F)O2)cc1 [CRANAD-2]
